# Biological target: Trypsin (Homo sapiens, UniProt P07477+P07478+P35030)
# Experiment: Competitive inhibition of trypsin (unknown origin) using […] as substrate incubated for 20 mins prior to substrate addition by Dixon plot/ Lineweaver-Burk plot analysis
# Format: protein assay
row,Compound,Ki
1,CCCCCCCCC(CC)COC(=O)c1ccccc1C(=O)OCC(CC)CCCCCCCC (configuration not stated),12.1 µM
2,O=S(=O)(F)Cc1ccccc1 [PHENYLMETHYLSULFONYLFLUORIDE],10.01 µM
